For one assay, the system named is A549 cells. In words: Proliferation Assay (A549 viability, Cell Titer Fluor, 72 hours). To be noted: Homo sapiens, A549, 72 h. Format: cell-based. A digest of the protocol: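 A549 cells seeded at 1000 cells/well, rested 24 h, then exposed to compound in 0.5% DMSO for 72 h at 37 °C. Viability read by Cell Titer Fluor fluorescence; IC50 from four-parameter logistic fit.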

Assay [1] deals with purified recombinant human GAC (GLS1) (Homo sapiens (Human), UniProt O94925). The experiment in a line: GLS1 Enzymatic Activity Assay (dual-coupled enzymatic assay, resorufin/Amplex UltraRed readout).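 Also: glutamate from GAC coupled via glutamate oxidase and peroxidase to resorufin, read as fluorescence (ex 530, em 590 nm) kinetically or at 20 min, four-parameter logistic IC50 fit.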 Format: biochemical.
Sequence of purified recombinant human GAC (GLS1) (O94925 other isoform, or with tags, fused parts or gaps): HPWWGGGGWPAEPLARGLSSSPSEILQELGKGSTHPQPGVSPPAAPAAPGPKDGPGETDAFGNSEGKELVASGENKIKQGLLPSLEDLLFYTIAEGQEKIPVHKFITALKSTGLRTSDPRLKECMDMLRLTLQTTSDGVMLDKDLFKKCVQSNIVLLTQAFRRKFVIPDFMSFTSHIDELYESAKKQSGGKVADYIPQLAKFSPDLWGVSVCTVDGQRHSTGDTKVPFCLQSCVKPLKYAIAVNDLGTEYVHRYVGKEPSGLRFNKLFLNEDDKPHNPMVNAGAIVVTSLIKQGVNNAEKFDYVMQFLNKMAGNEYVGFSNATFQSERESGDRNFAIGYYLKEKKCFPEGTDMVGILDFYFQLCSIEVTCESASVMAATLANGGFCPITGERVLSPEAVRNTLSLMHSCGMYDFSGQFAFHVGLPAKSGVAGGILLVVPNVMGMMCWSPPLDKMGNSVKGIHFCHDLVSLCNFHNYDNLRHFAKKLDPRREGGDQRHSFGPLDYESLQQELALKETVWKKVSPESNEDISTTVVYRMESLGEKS

Our source for the EC50 and IC50 values is US10344025B2, “GLS1 inhibitors for treating disease” (Board of Regents, The University of Texas System, priority 2014, dated 2019).

In the assay on A549 cells, `O=C(NCc1cc(C(F)(F)F)ccn1)c1cn(CCC(F)Cn2cc(C(=O)NCc3cc(OC(F)(F)F)ccc3F)nn2)nn1` (stereo not drawn) [Example 432, 1-{2-fluoro-4-[4-({[4-(trifluoromethyl)pyridin-2-yl]methyl}carbamoyl)-1H-1,2,3-triazol-1-yl]butyl}-N-{[-fluoro-5-(trifluoromethoxy)phenyl]methyl}-1H-1,2,3-triazole-4-carboxamide] returned an EC50 below 0.1 µM. Further, the IC50 in assay [1] was below 0.1 µM.

With `O=C(NCc1ccc(C(F)(F)F)cn1)c1cn(CCC(F)Cn2cc(C(=O)NCc3cccc(OC(F)(F)F)c3)nn2)nn1` (stereo not drawn) [Example 433, 1-{2-fluoro-4-[4-({[5-(trifluoromethyl)pyridin-2-yl]methyl}carbamoyl)-1H-1,2,3-triazol-1-yl]butyl}-N-{[3-(trifluoromethoxy)phenyl]methyl}-1H-1,2,3-triazole-4-carboxamide], in the assay with A549 cells, the EC50 is below 0.1 µM. Besides, in assay [1], the IC50 was below 0.1 µM.

As for `Cc1ccc(CNC(=O)c2cn(CCC(F)Cn3cc(C(=O)NCc4cccc(OC(F)(F)F)c4)nn3)nn2)cn1` (stereo not drawn) [Example 434, 1-[2-fluoro-4-(4-{[(6-methylpyridin-3-yl)methyl]carbamoyl}-1H-1,2,3-triazol-1-yl)butyl]-N-{[3-(trifluoromethoxy)phenyl]methyl}-1H-1,2,3-triazole-4-carboxamide], in the assay on A549 cells, the EC50 was below 0.1 µM. In addition, in assay [1], the IC50 was below 0.1 µM.

`O=C(NCc1cccc(OC(F)(F)F)c1)c1cn(CCC(F)Cn2cc(C(=O)NCc3ccc(C(F)(F)F)nc3)nn2)nn1` (stereo not drawn) [Example 435, 1-{2-fluoro-4-[4-({[3-(trifluoromethoxy)phenyl]methyl}carbamoyl)-1H-1,2,3-triazol-1-yl]butyl}-N-{[6-(trifluoromethyl)pyridin-3-yl]methyl}-1H-1,2,3-triazole-4-carboxamide] registered an EC50 in the assay on A549 cells below 0.1 µM. Also, the IC50 in assay [1] is below 0.1 µM.

`O=C(NCc1cccc(OC(F)(F)F)c1)c1cn(CCC(F)Cn2cc(C(=O)NCc3cccc(C(F)(F)F)n3)nn2)nn1` (stereo not drawn) [Example 436, 1-{2-fluoro-4-[4-({[3-(trifluoromethoxy)phenyl]methyl}carbamoyl)-1H-1,2,3-triazol-1-yl]butyl}-N-{[6-(trifluoromethyl)pyridin-2-yl]methyl}-1H-1,2,3-triazole-4-carboxamide] displayed an EC50 in the assay on A549 cells below 0.1 µM. Besides, the 50% inhibitory concentration (IC50) in assay [1] is below 0.1 µM.

`O=C(NCc1ccc(C(F)(F)F)nc1)c1cn(CCC(F)Cn2cc(C(=O)NCc3cccc(OC(F)(F)F)c3)nn2)nn1` (stereo not drawn) [Example 437, 1-{3-fluoro-4-[4-({[3-(trifluoromethoxy)phenyl]methyl}carbamoyl)-1H-1,2,3-triazol-1-yl]butyl}-N-{[6-(trifluoromethyl)pyridin-3-yl]methyl}-1H-1,2,3-triazole-4-carboxamide] gave an EC50 in the assay with A549 cells below 0.1 µM. Besides, the IC50 in assay [1] was below 0.1 µM.

In the assay with A549 cells, `O=C(NCc1cccc(C(F)(F)F)n1)c1cn(CCC(F)Cn2cc(C(=O)NCc3cccc(OC(F)(F)F)c3)nn2)nn1` (stereo not drawn) [Example 438, 1-{3-fluoro-4-[4-({[3-(trifluoromethoxy)phenyl]methyl}carbamoyl)-1H-1,2,3-triazol-1-yl]butyl}-N-{[6-(trifluoromethyl)pyridin-2-yl]methyl}-1H-1,2,3-triazole-4-carboxamide] had an EC50 below 0.1 µM. The IC50 in assay [1] is below 0.1 µM.

`O=C(NCc1cc(C(F)(F)F)ccn1)c1cn(CCC(F)Cn2cc(C(=O)NCc3cccc(OC(F)(F)F)c3)nn2)nn1` (stereo not drawn) [Example 439, 1-{3-fluoro-4-[4-({[3-(trifluoromethoxy)phenyl]methyl}carbamoyl)-1H-1,2,3-triazol-1-yl]butyl}-N-{[4-(trifluoromethyl)pyridin-2-yl]methyl}-1H-1,2,3-triazole-4-carboxamide] yielded an EC50 in the assay on A549 cells below 0.1 µM. In addition, in assay [1], the IC50 is below 0.1 µM.

In the case of `O=C(NCc1ncccc1F)c1cn(CCC(F)Cn2cc(C(=O)NCc3cccc(OC(F)(F)F)c3)nn2)nn1` (stereo not drawn) [Example 440, 1-{3-fluoro-4-[4-({[3-(trifluoromethoxy)phenyl]methyl}carbamoyl)-1H-1,2,3-triazol-1-yl]butyl}-N-[(3-fluoropyridin-2-yl)methyl]-1H-1,2,3-triazole-4-carboxamide], the EC50 with A549 cells was in the range of 0.1 to 0.5 µM. Besides, the IC50 in assay [1] is below 0.1 µM.

Molecule `O=C(NCc1ccc(C(F)(F)F)cn1)c1cn(CCC(F)Cn2cc(C(=O)NCc3cc(OC(F)(F)F)ccc3F)nn2)nn1` (stereo not drawn) [Example 441, 1-{2-fluoro-4-[4-({[5-(trifluoromethyl)pyridin-2-yl]methyl}carbamoyl)-1H-1,2,3-triazol-1-yl]butyl}-N-{[2-fluoro-5-(trifluoromethoxy)phenyl]methyl}-1H-1,2,3-triazole-4-carboxamide] yielded an EC50 with A549 cells below 0.1 µM. In assay [1], the IC50 is below 0.1 µM.

Turning to `Cc1ccc(CNC(=O)c2nnc(CCC(F)Cn3cc(C(=O)NCc4cccc(OC(F)(F)F)c4)nn3)s2)cn1` (stereo not drawn) [Example 442, 5-{3-fluoro-4-[4-({[3-(trifluoromethoxy)phenyl]methyl}carbamoyl)-1H-1,2,3-triazol-1-yl]butyl}-N-[(6-methylpyridin-3-yl)methyl]-1,3,4-thiadiazole-2-carboxamide], the EC50 with A549 cells is below 0.1 µM. The IC50 in assay [1] is below 0.1 µM.

In the assay with A549 cells, `Cc1ccc(CNC(=O)c2nnc(CCC(F)Cn3cc(C(=O)NCc4cc(OC(F)(F)F)ccc4F)nn3)s2)cn1` (stereo not drawn) [Example 443, 5-{3-fluoro-4-[4-({[2-fluoro-5-(trifluoromethoxy)phenyl]methyl}carbamoyl)-1H-1,2,3-triazol-1-yl]butyl}-N-[(6-methylpyridin-3-yl)methyl]-1,3,4-thiadiazole-2-carboxamide] yielded an EC50 below 0.1 µM. Moreover, in assay [1], the IC50 was below 0.1 µM.

In the assay with A549 cells, `O=C(NCc1ncccc1F)c1cn(CCC(F)Cn2cc(C(=O)NCc3cc(OC(F)(F)F)ccc3F)nn2)nn1` (stereo not drawn) [Example 444, 1-{3-fluoro-4-[4-({[2-fluoro-5-(trifluoromethoxy)phenyl]methyl}carbamoyl)-1H-1,2,3-triazol-1-yl]butyl}-N-[(3-fluoropyridin-2-yl)methyl]-1H-1,2,3-triazole-4-carboxamide] returned an EC50 below 0.1 µM. The half-inhibitory concentration (IC50) in assay [1] was below 0.1 µM.

In the assay on A549 cells, `O=C(NCc1ccc(C(F)(F)F)cn1)c1cn(CC(F)CCc2nnc(C(=O)NCc3cccc(OC(F)(F)F)c3)s2)nn1` (stereo not drawn) [Example 445, 5-{3-fluoro-4-[4-({[5-(trifluoromethyl)pyridin-2-yl]methyl}carbamoyl)-1H-1,2,3-triazol-1-yl]butyl}-N-{[3-(trifluoromethoxy)phenyl]methyl}-1,3,4-thiadiazole-2-carboxamide] returned an EC50 below 0.1 µM. Also, in assay [1], the IC50 is below 0.1 µM.

With `O=C(NCc1cc(C(F)(F)F)ccn1)c1cn(CC(F)CCc2nnc(C(=O)NCc3cccc(OC(F)(F)F)c3)s2)nn1` (stereo not drawn) [Example 446, 5-{3-fluoro-4-[4-({[4-(trifluoromethyl)pyridin-2-yl]methyl}carbamoyl)-1H-1,2,3-triazol-1-yl]butyl}-N-{[3-(trifluoromethoxy)phenyl]methyl}-1,3,4-thiadiazole-2-carboxamide], the EC50 in the assay on A549 cells was below 0.1 µM. Moreover, the IC50 in assay [1] is below 0.1 µM.

For `Cc1ccc(CNC(=O)c2cn(CC(F)CCc3nnc(C(=O)NCc4cc(OC(F)(F)F)ccc4F)s3)nn2)cn1` (stereo not drawn) [Example 447, 5-[3-fluoro-4-(4-{[(6-methylpyridin-3-yl)methyl]carbamoyl}-1H-1,2,3-triazol-1-yl)butyl]-N-{[2-fluoro-5-(trifluoromethoxy)phenyl]methyl}-1,3,4-thiadiazole-2-carboxamide], the EC50 in the assay on A549 cells is below 0.1 µM. Moreover, in assay [1], the IC50 is below 0.1 µM.

In the assay with A549 cells, `O=C(NCc1ccc(C(F)(F)F)cn1)c1cn(CC(F)CCc2nnc(C(=O)NCc3cc(OC(F)(F)F)ccc3F)s2)nn1` (stereo not drawn) [Example 448, 5-{3-fluoro-4-[4-({[5-(trifluoromethyl)pyridin-2-yl]methyl}carbamoyl)-1H-1,2,3-triazol-1-yl]butyl}-N-{[2-fluoro-5-(trifluoromethoxy)phenyl]methyl}-1,3,4-thiadiazole-2-carboxamide] had an EC50 below 0.1 µM. Besides, the IC50 in assay [1] was below 0.1 µM.

`O=C(NCc1cc(C(F)(F)F)ccn1)c1cn(CC(F)CCc2nnc(C(=O)NCc3cc(OC(F)(F)F)ccc3F)s2)nn1` (stereo not drawn) [Example 449, 5-{3-fluoro-4-[4-({[4-(trifluoromethyl)pyridin-2-yl]methyl}carbamoyl)-1H-1,2,3-triazol-1-yl]butyl}-N-{[2-fluoro-5-(trifluoromethoxy)phenyl]methyl}-1,3,4-thiadiazole-2-carboxamide]: in the assay on A549 cells, the EC50 is below 0.1 µM. The IC50 in assay [1] is below 0.1 µM.

Molecule `O=C(NCc1cc(C(F)(F)F)ccn1)c1cn(CCC(F)Cn2cc(C(=O)NCc3ccccc3)nn2)nn1` (stereo not drawn) [Example 450, N-benzyl-1-{2-fluoro-4-[4-({[4-(trifluoromethyl)pyridin-2-yl]methyl}carbamoyl)-1H-1,2,3-triazol-1-yl]butyl}-1H-1,2,3-triazole-4-carboxamide] came in with an EC50 in the assay with A549 cells of 0.1 to 0.5 µM. Further, the IC50 in assay [1] is below 0.1 µM.

Turning to `O=C(NCc1cc(OC(F)(F)F)ccc1F)c1cn(CC(F)CCc2nnc(C(=O)NCc3cc(C(F)(F)F)ccn3)s2)nn1` (stereo not drawn) [Example 451, 5-{3-fluoro-4-[4-({[2-fluoro-5-(trifluoromethoxy)phenyl]methyl}carbamoyl)-1H-1,2,3-triazol-1-yl]butyl}-N-{[4-(trifluoromethyl)pyridin-2-yl]methyl}-1,3,4-thiadiazole-2-carboxamide], the EC50 in the assay with A549 cells was below 0.1 µM. Further, the 50% inhibitory concentration (IC50) in assay [1] was below 0.1 µM.

The molecule `O=C(NCc1cc(OC(F)(F)F)ccc1F)c1cn(CCC(F)Cn2cc(C(=O)N[C@H](CO)c3ccccc3)nn2)nn1` (stereo partly drawn) [Example 452, 1-{2-fluoro-4-[4-({[2-fluoro-5-(trifluoromethoxy)phenyl]methyl}carbamoyl)-1H-1,2,3-triazol-1-yl]butyl}-N-[(1S)-2-hydroxy-1-phenylethyl]-1H-1,2,3-triazole-4-carboxamide] came in with an EC50 with A549 cells of 0.1 to 0.5 µM. Moreover, the IC50 in assay [1] is below 0.1 µM.
